Laboratory results from patent US11884675B2, “Heterocyclic compounds as triggering receptor expressed on myeloid cells 2 agonists and methods of use” (AMGEN INC., priority 2020, dated 2024).

Target: hTREM2 (Homo sapiens, UniProt Q9NZC2)
Assay: TREM2 agonist potency by Syk phosphorylation (AlphaLisa) in HEK293T-hTREM2 cells, used for Examples 306-429
Type: cell-based
Design: expressed in transfected cells; host or cells: HEK293T (HEK293T-hTREM2 cells)
Settings: HEK293 Cells
Summary of the method: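 HEK293T cells expressing human TREM2 and DAP12, plated 20-24 h before, were exposed to compounds for 45 min at room temperature, then lysed. Phospho-Syk read by AlphaLisa; % activation from a standard curve and EC50 from a four-parameter log(agonist) fit.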

hTREM2, sequence (Q9NZC2 19-230): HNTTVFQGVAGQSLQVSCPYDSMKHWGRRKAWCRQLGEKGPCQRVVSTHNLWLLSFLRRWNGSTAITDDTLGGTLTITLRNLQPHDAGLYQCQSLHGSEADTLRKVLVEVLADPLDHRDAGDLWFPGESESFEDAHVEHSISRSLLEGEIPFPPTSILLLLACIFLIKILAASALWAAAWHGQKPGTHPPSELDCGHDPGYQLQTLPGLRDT
hTREM2, sequence (O43914 22-113 partner): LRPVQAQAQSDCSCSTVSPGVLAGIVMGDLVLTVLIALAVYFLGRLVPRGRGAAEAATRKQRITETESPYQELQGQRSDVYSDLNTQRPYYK

SMILES | EC50 [nM]
Cc1nc2nc([C@H]3CCO[C@@H](c4cnn(C5CC5)c4)C3)nc(-c3ccc(C(F)(F)F)cc3F)c2nc1C [Example 413, 2-((2R,4S)-2-(1-cyclopropyl-1H-pyrazol-4-yl)tetrahydro-2H-pyran-4-yl)-4-(2-fluoro-4-(trifluoromethyl)phenyl)-6,7-dimethylpteridine] | ≤ 50
COc1cc([C@@H]2CN(c3nc(-c4ccc(Cl)cc4F)c4nc(C)c(C)nc4n3)CCO2)ccn1 [Example 336, (R)-4-(4-(4-chloro-2-fluorophenyl)-6,7-dimethylpteridin-2-yl)-2-(2-methoxypyridin-4-yl)morpholine] | 50 to 500
Cc1nc2cc(N3C[C@@H](C)O[C@@H](c4cnn(C5CC5)c4)C3)nc(C34CC(C(F)(F)F)(C3)C4)c2nc1C (racemic) [Example 379, 2-(1-cyclopropylpyrazol-4-yl)-4-[2,3-dimethyl-5-[3-(trifluoromethyl)-1-bicyclo[1.1.1]pentanyl]pyrido[3,4-b]pyrazin-7-yl]-6-methyl-morpholine] | 50 to 500
Cc1nc2nc(N3CC(C)OC(c4cnn(C5CC5)c4)C3)nc(C34CC(C(F)(F)F)(C3)C4)c2nc1C (centres unmarked) [Example 356, 2-(1-cyclopropyl-1H-pyrazol-4-yl)-4-(6,7-dimethyl-4-(3-(trifluoromethyl)bicyclo[1.1.1]pentan-1-yl)pteridin-2-yl)-6-methylmorpholine] | ≤ 50
Cc1cnc2c(C34CC(C(F)(F)F)(C3)C4)nc(N3CCO[C@H](c4cnn(C5CC5)c4)C3)nc2n1 [Example 359, (R)-2-(1-cyclopropyl-1H-pyrazol-4-yl)-4-(7-methyl-4-(3-(trifluoromethyl)bicyclo[1.1.1]pentan-1-yl)pteridin-2-yl)morpholine] | ≤ 50
Cc1nc2nc(N3C[C@@H](c4cnn(C5CC5)c4)O[C@@H](C)C3)nc(-c3ccc(F)cc3F)c2nc1C [Example 426, (2R,6S)-2-(1-cyclopropyl-1H-pyrazol-4-yl)-4-(4-(2,4-difluorophenyl)-6,7-dimethylpteridin-2-yl)-6-methylmorpholine] | ≤ 50
Cc1nc2nc([C@H]3CCO[C@@H](c4cnn(C5CC5)c4)C3)nc(C34CC(C(F)(F)F)(C3)C4)c2nc1C (stereo in doubt) [Example 366, 2-(2-(1-cyclopropyl-1H-pyrazol-4-yl)tetrahydro-2H-pyran-4-yl)-6,7-dimethyl-4-(3-(trifluoromethyl)bicyclo[1.1.1]pentan-1-yl)pteridine] | ≤ 50
Cc1nc2cc(N3CCO[C@H](c4cnn(C5CC5)c4)C3)nc(-c3ccc(Cl)cc3F)c2nc1C [Example 383, (2R)-4-[5-(4-chloro-2-fluoro-phenyl)-2,3-dimethyl-pyrido[3,4-b]pyrazin-7-yl]-2-(1-cyclopropylpyrazol-4-yl)morpholine] | 50 to 500
Cc1ccc2c(-c3ccc(Cl)cc3F)nc([C@H]3C[C@@H](C)O[C@@H](c4cnn(C5CC5)c4)C3)nc2n1 [Example 414, 4-(4-chloro-2-fluorophenyl)-2-((2R,4S,6R)-2-(1-cyclopropyl-1H-pyrazol-4-yl)-6-methyltetrahydro-2H-pyran-4-yl)-7-methylpyrido[2,3-d]pyrimidine] | ≤ 50

Continued, values first:

EC50 [nM] | SMILES
≤ 50 | Cc1cc([C@@H]2C[C@H](c3nc(-c4cc(F)c(Cl)c(F)c4)c4nc(C)c(C)nc4n3)CCO2)ccn1 (racemic) [Example 389, 4-(4-chloro-3,5-difluoro-phenyl)-6,7-dimethyl-2-[2-(2-methyl-4-pyridyl)tetrahydropyran-4-yl]pteridine]
≤ 50 | Cc1nc2cc([C@H]3C[C@@H](C)O[C@@H](c4cnn(C5CC5)c4)C3)nc(-c3ccc(F)cc3F)c2nc1C [Example 380, 7-[(2R,4S,6R)-2-(1-cyclopropylpyrazol-4-yl)-6-methyl-tetrahydropyran-4-yl]-5-(2,4-difluorophenyl)-2,3-dimethyl-pyrido[3,4-b]pyrazine]
≤ 50 | Cc1cc(C2CC(c3cc4nc(C)c(C)cc4c(-c4ccc(Cl)cc4F)n3)CCO2)ccn1 (centres unmarked) [Example 327, 5-(4-chloro-2-fluorophenyl)-2,3-dimethyl-7-(2-(2-methylpyridin-4-yl)tetrahydro-2H-pyran-4-yl)-1,6-naphthyridine]
≤ 50 | Cc1cc([C@H]2C[C@H](c3cc4nc(C)c(C)cc4c(-c4ccc(F)cc4F)n3)CCO2)ccn1 (racemic) [Example 400, 5-(2,4-difluorophenyl)-2,3-dimethyl-7-[2-(2-methyl-4-pyridyl)tetrahydropyran-4-yl]-1,6-naphthyridine]
≤ 50 | Cc1nc2cc(N3C[C@@H](C)O[C@@H](c4cnn(C5CC5)c4)C3)nc(-c3ccc(F)cc3F)c2nc1C (racemic) [Example 358, 2-(1-cyclopropyl-1H-pyrazol-4-yl)-4-(5-(2,4-difluorophenyl)-2,3-dimethylpyrido[3,4-b]pyrazin-7-yl)-6-methylmorpholine]
50 to 500 | Cc1cnc2c(-c3ccc(F)cc3F)nc([C@H]3CCO[C@@H](c4cnn(C5CC5)c4)C3)cc2n1 (racemic) [Example 388, 5-(2,4-difluorophenyl)-2-methyl-7-[2-(1-cyclopropylpyrazol-4-yl)tetrahydropyran-4-yl]pyrido[3,4-b]pyrazine]
≤ 50 | Cc1cc([C@H]2CN(c3nc(-c4ccc(Cl)c(F)c4F)c4nc(C)c(C)nc4n3)CCO2)ccn1 [Example 363, (S)-4-(4-(4-chloro-2,3-difluorophenyl)-6,7-dimethylpteridin-2-yl)-2-(2-methylpyridin-4-yl)morpholine]
50 to 500 | Cc1nc2cc(N3C[C@@H](C)O[C@@H](c4cnn(C5CC5)c4)C3)nc(-c3ccc(F)cc3F)c2nc1C [Example 403, (2S,6R)-2-(1-cyclopropyl-1H-pyrazol-4-yl)-4-(5-(2,4-difluorophenyl)-2,3-dimethylpyrido[3,4-b]pyrazin-7-yl)-6-methylmorpholine]
≤ 50 | COc1cc(C2CN(c3nc(-c4ccc(Cl)cc4F)c4nc(C)c(C)nc4n3)CCO2)ccn1 (centres unmarked) [Example 314, 4-(4-(4-chloro-2-fluorophenyl)-6,7-dimethylpteridin-2-yl)-2-(2-methoxypyridin-4-yl)morpholine]
50 to 500 | Cc1ccc2c(-c3ccc(F)cc3F)nc([C@H]3C[C@@H](C)O[C@@H](c4cnn(C5CC5)c4)C3)nc2n1 [Example 416, 2-((2R,4S,6R)-2-(1-cyclopropyl-1H-pyrazol-4-yl)-6-methyltetrahydro-2H-pyran-4-yl)-4-(2,4-difluorophenyl)-7-methylpyrido[2,3-d]pyrimidine]
50 to 500 | Cc1cc([C@H]2C[C@@H](c3nc(-c4ccc(C(F)(F)F)nc4)c4nc(C)c(C)nc4n3)CCO2)ccn1 (racemic) [Example 309, 6,7-dimethyl-2-(2-(2-methylpyridin-4-yl)tetrahydro-2H-pyran-4-yl)-4-(6-(trifluoromethyl)pyridin-3-yl)pteridine]
